According to patent US20030060438A1, “Oligonucleotides and other modulators of the NK-1 receptor pathway and therapeutic uses thereof” (priority 2000, published 2003):
“Also recorded” adds a separate entry of the source.

What was measured:
Format in all cases: in vivo, rat
NK-1 receptor [1] = experiment: CFA ankle joint arthritis model, ankle circumference, systemic oligonucleotide; conditions: 300 micro grams/kg, Q12 h, intraperitoneal from 2 days prior to CFA
Method: Complete Freund's Adjuvant (CFA) injection (13.6 micro grams/25 microlitres) into the ankle joint of the rat produces two responses, an inflammatory response that begins within 24 hours and lasts approximately one week, and a later inflammatory response combined with symptoms modeling arthritis. Antisense (AS) oligonucleotide (300 micro grams/kg, Q12 h, intraperitoneal) or saline was administered for 2 days prior to CFA injection and throughout the time course of testing. In control animals CFA induces two phases of response as assessed by ankle circumference; the first is maximal at 48 h after injection and the second at day 18. […] Statistical analysis was performed using a two way ANOVA and post hoc analysis using the tukey's test.

NK-1 receptor [2] = experiment: Formalin test, intrathecal oligonucleotide
Method: The formalin test is similar in some ways to the capsaicin test, in that a noxious chemical is injected under the skin. In the case of formalin, however, this produces nociceptive behavior lasting up to one hour, and thus represents a longer-term tonic pain. The pain score was determined using the same parameters outlined above for the capsaicin test. Oligonucleotides or ASCF control (artificial cerebral spinal fluid) were administered for 7 days prior to testing by continuous infusion (1 micro grams/microlitres/h) via Alzet® minipumps attached to intrathecal catheters for spinal delivery. […] Statistical analysis was performed by a two way ANOVA with time and treatment as independent measures. Time: F(9,44)=8.264, p<0.05, Treatment: F(9,44)=7.254, p<0.05.
Antisense (AS) oligonucleotide or ASCF control (artificial cerebral spinal fluid) was administered for 7 days prior to testing by continuous infusion (0.45 micro grams/microlitres/h) via Alzet® minipumps attached to intrathecal catheters for spinal delivery. […] Statistical analysis was performed by a two way ANOVA with time and treatment as independent measures. Time: F(9,17)=7.985, p<0.05, Treatment: F(9,17)=2.541, p>0.05.

NK-1 receptor [3] = experiment: Mechanical response thresholds in naive rats, intrathecal oligonucleotide; conditions: no surgery; intrathecal 1 micro grams/microlitres/h, prolonged administration
Method: The effect of intrathecal administration of NK-1 receptor antisense oligonucleotide on mechanical response thresholds in naive rats is shown in FIG. 6.
Oligonucleotides or ASCF control (artificial cerebral spinal fluid) were administered for 2 days prior to surgery, and throughout the time course of testing, by continuous infusion (1 micro grams/microlitres/h) via Alzet® minipumps attached to intrathecal catheters for spinal delivery.

NK-1 receptor [4] = experiment: CFA arthritis model, collagen breakdown products in plasma, systemic oligonucleotide; conditions: days 3 and 18 following CFA injection; 300 micro grams/kg, Q12 h, intraperitoneal
Method: Complete Freund's Adjuvant (CFA) was injected into the ankle joint of the rat and the levels of collagen breakdown products were assessed on days 3 and 18 following CFA injection. This was accomplished by measuring collagen degradation in the plasma of blood samples taken from the tail vein of rats while lightly anesthetized with halothane anesthesia. Antisense (AS) oligonucleotide (300 micro grams/kg, Q12 h, intraperitoneal) or saline was administered for 2 days prior to CFA injection and for the subsequent 18 days. […] (Pervious experiments have identified that the levels of collagen breakdown products are maximal at day 3-5 after CFA injection). Statistical analysis was performed using an unpaired t-test.

NK-1 receptor [5] = experiment: Capsaicin test, nociceptive behaviour after plantar injection, intrathecal oligonucleotide; conditions: intrathecal continuous infusion 2 micro grams/microlitres/h for 7 days; vs ACSF or MIS
Description: The effect of intrathecal administration of NK-1 receptor antisense oligonucleotide on the nociceptive responses induced by capsaicin is shown in FIG. 2. This test consists of injecting a dilute solution of the active ingredient of hot peppers, capsaicin subcutaneously in the plantar surface of the rat hind paw. Capsaicin, C18H27NO3, is a known painful stimulus, especially of c-fibers, which are associated with substance P.
Capsaicin produces nociceptive (pain) behaviors over a period of about 5 minutes. The index of nociceptive behavior was assessed based a weighted pain intensity scale, where the animal is given a value of 0 for showing no signs of favoring of the injected paw, 1—favoring of hind paw such that it is resting lightly on the floor, 2—elevation of hind paw, 3—licking or vigorously shaking the hind paw. The numerical ratings were calculated by multiplying the amount of time the rats spent in each category by the weighted factor indicated above. This was expressed by the following formula: (time spent in category 0*0+time spent in category 1*1+time spent in category 2*2+time spent in category 3*3)/180 seconds. Oligonucleotides or ASCF control (artificial cerebral spinal fluid) were administered for 7 days prior to testing by continuous infusion (2 micro grams/microlitres/h) via Alzet™ minipumps attached to intrathecal catheters for spinal delivery. […]

NK-1 receptor [6] = experiment: Formalin test, systemic (intraperitoneal) oligonucleotide; conditions: 300 micro grams/kg, Q12 h, 6 days prior to testing, vs saline
Method: The formalin test produces a biphasic nociceptive behavior that lasts up to one hour that is believed to represent a tonic, persistent pain. The index of nociceptive behavior is assessed based a weighted pain intensity scale, where the animal is given a value of 0 for showing no signs of favoring of the injected paw, 1—favoring of hind paw such that it is resting lightly on the floor, 2—elevation of hind paw, 3—licking or vigorously shaking the hind paw. The numerical ratings were calculated by multiplying the amount of time the rats spent in each category by the weighted factor indicated above for each 5 minute interval over a one hour time period. This was expressed by the following formula: (time spent in category 0*0+time spent in category 1*1+time spent in category 2*2+time spent in category 3*3)/300 seconds. Antisense (AS) oligonucleotide (300 micro grams/kg, Q12 h, intraperitoneal) or saline was administered for 6 days prior to testing. […] Statistical analysis was performed by a two way ANOVA with time and treatment as independent measures. Time: F=9.966, p<0.001, Treatment: F=31.85, p<0.001.

NK-1 receptor [7] = experiment: CFA ankle joint arthritis model, ankle circumference, intrathecal oligonucleotide; conditions: intrathecal 1 micro grams/microlitres/h from 48 h prior to CFA injection; vs ACSF or MIS
Method: Complete Freund's Adjuvant (CFA) injection into the ankle joint of the rat produces two responses, an inflammatory response that begins within 24 hours and lasts approximately one week, and a later inflammatory response combined with symptoms modelling arthritis. Oligonucleotides or ASCF control (artificial cerebral spinal fluid) was administered for 48 h prior to CFA injection and continuously for the testing days (1 micro grams/microlitres/h) via Alzet® minipumps attached to intrathecal catheters for spinal delivery. […] Statistical analysis was performed using a one way ANOVA and post hoc analysis using the Dunnett's test.

Substance: 5′gac gtt atc cat ttt ggg g3′ (antisense GACGTTATCCATTTTGGGG; listed as DNA, chemistry not fully specified) [NK-1 receptor antisense oligonucleotide used in all experiments]
- magnitude of inflammation, measured as ankle circumference, first phase (NK-1 receptor [1]; first phase maximal at 48 h): less
- magnitude of inflammation, measured as ankle circumference, second phase (NK-1 receptor [1]; second phase maximal at day 18): less
- formalin-induced nociceptive responses, lower dose (NK-1 receptor [2]; intrathecal continuous infusion 0.45 micro grams/microlitres/h for 7 days prior to testing): without effect; also recorded: no attenuation
- formalin-induced nociceptive scores (NK-1 receptor [2]; intrathecal continuous infusion 1 micro grams/microlitres/h for 7 days prior to testing): nociceptive scores are less
- mechanical response (withdrawal) threshold of either hind limb in naive rats (NK-1 receptor [3]): had no effect
- collagen breakdown products in plasma compared to saline controls (NK-1 receptor [4]): significant attenuation
- capsaicin-induced nociceptive behavior (weighted pain score) (NK-1 receptor [5]): less time spent in nociceptive behavior
- formalin-induced nociceptive scores (NK-1 receptor [6]): nociceptive scores are less
- magnitude of inflammation, measured as ankle circumference (NK-1 receptor [7]): less
